Legend:
Meloidogyne incognita = test: Meloidogyne test (spray treatment); type: in vivo; conditions: 20 g/ha, nematicidal effect from formation of galls on lettuce roots
Procedure: Meloidogyne Test (Spray Treatment)
Solvent: 80 parts by weight of acetone
Containers are filled with sand, solution of active compound, Meloidogyne incognita egg/larvae suspension, and lettuce seeds. The lettuce seeds germinate and the plants develop. On the roots, galls are formed.
After the desired time, the nematicidal effect is determined in % from the formation of galls. 100% here means that no galls were found; 0% means that the number of galls on the treated plants corresponds to that in the untreated control.

[1] = tested on: larvae of the army worm (Spodoptera frugiperda); test: Spodoptera frugiperda test (spray treatment); type: in vivo; conditions: 500 g/ha, sprayed maize leaf disks
Source text: Spodoptera frugiperda Test (Spray Treatment)

[2] = tested on: larvae of the cabbage moth (Plutella xylostella); test: Plutella test; type: in vivo; conditions: for Kill rate in % after 7^d: 100 PPM, dipped cabbage leaves; for efficacy (in words): Plutella test
Source text: Solvent: 7 parts by weight of dimethylformamide
Emulsifier: 1 part by weight of alkylaryl polyglycol ether

[3] = tested on: eggs of the cotton bollworm (Heliothis virescens); test: Heliothis virescens egg test (spray treatment); type: in vivo; conditions: 500 g/ha, sprayed soybean leaves, 100% = none of the larvae hatched
Source text: Heliothis virescens Egg Test (Spray Treatment)

[4] = tested on: larvae of the mustard beetle (Phaedon cochleariae); test: Phaedon larvae test (spray treatment); conditions: sprayed Chinese cabbage leaf disks
[5] = tested on: greenhouse red spider mite (Tetranychus urticae); test: Tetranychus test (OP-resistant/spray treatment); type: in vivo
Source text: Tetranychus Test (OP-Resistant/Spray Treatment)
Disks of bean leaves (Phaseolus vulgaris) which are infested by all stages of the greenhouse red spider mite (Tetranychus urticae) are sprayed with an active compound preparation in the desired concentration.

## COc1ccc(C2C3=C(CN(c4ccccc4)C3=O)Nc3cc4c(cc32)OCO4)cc1 (stereo not shown)
Meloidogyne incognita
  Kill rate in % after 14^d: 70%

## CCN1CC2=C(C1=O)C(c1ccc(OC)cc1)c1cc3c(cc1N2)OCO3 (stereo not shown)
Meloidogyne incognita
  Kill rate in % after 14^d: 70%

## COc1cccc(C2C3=C(COC3=O)Nc3cc4c(cc32)OCO4)c1 (stereo not shown) [Example 1, 6,7-(methylenedioxy)-9-(3-methoxyphenyl)-4,9-dihydro-3H-furo[3,4-b]quinolin-1-one]
[1]
  Kill rate in % after 7^d: 100%

## O=C1OCC2=C1C(c1cccc(Cl)c1)c1cc3c(cc1N2)OCO3 (stereo not shown) [Example 6]
[1]
  Kill rate in % after 7^d: 100%
[2]
  Kill rate in % after 7^d: 100%
  efficacy (in words): high efficacy
[3]
  Kill rate in % after 7^d: 98%

## COc1ccc2c(c1)C(c1cc(OC)c(OC)c(OC)c1)C1=C(COC1=O)N2 (stereo not shown) [Example 8, 7-methoxy-9-(3,4,5-trimethoxyphenyl)-4,9-dihydro-3H-furo[3,4-b]quinolin-1-one]
[4]; 500 g/ha
  Kill rate in % after 7^d: 100%

## COc1ccc2c(c1)NC1=C(C(=O)OC1)C2c1cc(OC)c(OC)c(OC)c1 (stereo not shown) [Example 9]
[1]
  Kill rate in % after 7^d: 100%
[2]
  Kill rate in % after 7^d: 90%
  efficacy (in words): high efficacy

## O=C1OCC2=C1C(c1cc(Cl)cc(Cl)c1)c1cc3c(cc1N2)OCO3 (stereo not shown) [Example 12]
[3]
  Kill rate in % after 7^d: 100%
[4]; 500 g/ha
  Kill rate in % after 7^d: 100%

## O=C1OCC2=C1C(c1cc(F)cc(F)c1)c1cc3c(cc1N2)OCO3 (stereo not shown) [Example 16]
[1]
  Kill rate in % after 7^d: 100%
[3]
  Kill rate in % after 7^d: 97%

## O=C1OCC2=C1C(c1ccccc1)c1cc3c(cc1N2)OCO3 (stereo not shown) [Example 17]
[1]
  Kill rate in % after 7^d: 100%

## O=C1OCC2=C1C(c1cccc(Br)c1)c1cc3c(cc1N2)OCO3 (stereo not shown) [Example 18]
[3]
  Kill rate in % after 7^d: 98%
[4]; 500 g/ha
  Kill rate in % after 7^d: 100%

## Cc1cccc(C2C3=C(COC3=O)Nc3cc4c(cc32)OCO4)c1 (stereo not shown) [Example 19]
[1]
  Kill rate in % after 7^d: 100%

## O=C1OCC2=C1C(c1cccc(F)c1)c1cc3c(cc1N2)OCO3 (stereo not shown) [Example 20]
[3]
  Kill rate in % after 7^d: 96%
[4]; 500 g/ha
  Kill rate in % after 7^d: 83%

## Cc1cc(C)cc(C2C3=C(COC3=O)Nc3cc4c(cc32)OCO4)c1 (stereo not shown) [Example 23]
[1]
  Kill rate in % after 7^d: 100%
[3]
  Kill rate in % after 7^d: 98%

## Clc1cccc(C2C3=C(CCC3)Nc3cc4c(cc32)OCO4)c1 (stereo not shown) [Example 30]
[5]; 500 g/ha, after 7 d, sprayed bean leaf disks, all stages
  Kill rate in % after 7^d: 70%
[5]; Tetranychus test
  efficacy (in words): high efficacy

## CC1(C)CC(=O)C2=C(C1)Nc1cc3c(cc1C2c1cccc(Cl)c1)OCO3 (stereo not shown) [Example 31]
[3]
  Kill rate in % after 7^d: 83%

## CC1CC2=C(C(=O)O1)C(c1cccc(Cl)c1)c1cc3c(cc1N2)OCO3 (stereo not shown) [Example 35]
[1]
  Kill rate in % after 7^d: 100%
[4]; 500 g/ha
  Kill rate in % after 7^d: 100%

## CN1OC(C)(C)C2=C(C1=O)C(c1cccc(Cl)c1)c1cc3c(cc1N2)OCO3 (stereo not shown) [Example 36]
[3]
  Kill rate in % after 7^d: 80%

## COc1cc(OC)cc(C2C3=C(Nc4cc5c(cc42)OCO5)C(C)OC3=O)c1 (stereo not shown) [Example 45]
[1]
  Kill rate in % after 7^d: 100%
[3]
  Kill rate in % after 7^d: 98%
[4]; 500 g/ha
  Kill rate in % after 7^d: 100%

## COc1cc(OC)cc(C2C3=C(CCC3=O)Nc3cc4c(cc32)OCO4)c1 (stereo not shown) [Example 56]
[1]
  Kill rate in % after 7^d: 100%
[3]
  Kill rate in % after 7^d: 80%
[4]; 500 g/ha
  Kill rate in % after 7^d: 100%

## COc1cc(C2C3=C(COC3=O)Nc3cc4c(cc32)OCO4)cc(OC)c1OC (stereo not shown) [Example 61]
[4]; 500 g/ha
  Kill rate in % after 7^d: 100%

## COc1cc2c(cc1OC)C(c1ccc3c(c1)OC(F)(F)O3)C1=C(COC1=O)N2 (stereo not shown) [Example 68]
Meloidogyne incognita
  Kill rate in % after 14^d: 80%

## COc1cc(C2C3=C(COC3=O)N(C)c3cc4c(cc32)OCO4)cc(OC)c1OC (stereo not shown) [Example 69]
[4]; 500 g/ha
  Kill rate in % after 7^d: 100%

## COc1cc(C2C3=C(COC3=O)Nc3cc4c(cc32)OC(F)(F)O4)cc(OC)c1OC (stereo not shown) [Example 70]
[4]; 500 g/ha
  Kill rate in % after 7^d: 100%

## COc1cc2c(cc1OC)C(c1ccc3c(c1)OCO3)C1=C(COC1=O)N2 (stereo not shown) [Example 72]
Meloidogyne incognita
  Kill rate in % after 14^d: 100%

## COc1cc(OC)cc(C2C3=C(COC3=O)Nc3cc(OC)c(OC)cc32)c1 (stereo not shown) [Example 73]
[1]
  Kill rate in % after 7^d: 83%
[4]; 500 g/ha
  Kill rate in % after 7^d: 83%

## COc1cc(OC)cc(C2C3=C(COC3=O)Nc3cc4c(cc32)OCCO4)c1 (stereo not shown) [Example 74]
[1]
  Kill rate in % after 7^d: 100%

## COc1cc(OC)cc(C2C3=C(COC3=O)Nc3cc4c(cc32)OCCCO4)c1 (stereo not shown) [Example 75]
[1]
  Kill rate in % after 7^d: 100%
[4]; 500 g/ha
  Kill rate in % after 7^d: 100%

## COc1cc(OC)cc(C2C3=C(COC3=O)Nc3cc(SC)ccc32)c1 (stereo not shown) [Example 84]
[1]
  Kill rate in % after 7^d: 100%

## COc1cc(OC)cc(C2C3=C(COC3=O)Nc3ccc(OC)cc32)c1 (stereo not shown) [Example 86]
[1]
  Kill rate in % after 7^d: 100%
[4]; 500 g/ha
  Kill rate in % after 7^d: 100%

## COc1cc(OC)cc(C2C3=C(COC3=O)Nc3c2ccc(OC)c3OC)c1 (stereo not shown) [Example 90]
[1]
  Kill rate in % after 7^d: 100%
[4]; 500 g/ha
  Kill rate in % after 7^d: 100%

## COc1cc(OC)cc(C2C3=C(COC3=O)Nc3cc(OC)c(C)cc32)c1 (stereo not shown) [Example 93]
[1]
  Kill rate in % after 7^d: 100%
[4]; 500 g/ha
  Kill rate in % after 7^d: 100%

## CCOc1cc2c(cc1C)C(c1cc(OC)cc(OC)c1)C1=C(COC1=O)N2 (stereo not shown) [Example 99]
[4]; 500 g/ha
  Kill rate in % after 7^d: 83%

## COc1cc(OC)cc(C2C3=C(COC3=O)Nc3cc(OC)cc(OC)c32)c1 (stereo not shown) [Example 100]
[1]
  Kill rate in % after 7^d: 100%
[4]; 100 g/ha
  Kill rate in % after 7^d: 83%

## CCOc1cccc(C2C3=C(COC3=O)Nc3cc(OCC)ccc32)c1 (stereo not shown) [Example 103]
[1]
  Kill rate in % after 7^d: 100%
[4]; 500 g/ha
  Kill rate in % after 7^d: 100%

## COc1cc(OC)cc(C2(C)C3=C(COC3=O)Nc3cc4c(cc32)OCO4)c1 (stereo not shown) [Example 107]
[3]
  Kill rate in % after 7^d: 90%

## CCOc1cccc(C2C3=C(COC3=O)Nc3cc4c(cc32)OCO4)c1 (stereo not shown) [Example 111]
[1]
  Kill rate in % after 7^d: 100%

## O=C1OCC2=C1C(c1cc(C(F)(F)F)cc(Cl)c1F)c1cc3c(cc1N2)OCO3 (stereo not shown) [Example 113]
[3]
  Kill rate in % after 7^d: 95%
[4]; 500 g/ha
  Kill rate in % after 7^d: 100%

## COc1cc(C2C3=C(COC3=O)Nc3cc4c(cc32)OCO4)cc(Br)c1OC (stereo not shown) [Example 114]
[4]; 500 g/ha
  Kill rate in % after 7^d: 83%

## O=C1OCC2=C1C(c1cncc(Br)c1)c1cc3c(cc1N2)OCO3 (stereo not shown) [Example 116]
[1]
  Kill rate in % after 7^d: 100%

## O=C1OCC2=C1C(c1cc(Br)cc(Br)c1)c1cc3c(cc1N2)OCO3 (stereo not shown) [Example 123]
[1]
  Kill rate in % after 7^d: 100%
[3]
  Kill rate in % after 7^d: 95%

## COc1c(Cl)cc(C2C3=C(COC3=O)Nc3cc4c(cc32)OCO4)cc1Cl (stereo not shown) [Example 128]
[1]
  Kill rate in % after 7^d: 83%
[4]; 500 g/ha
  Kill rate in % after 7^d: 100%

## O=C1OCC2=C1C(c1ccc(F)c(Br)c1)c1cc3c(cc1N2)OCO3 (stereo not shown) [Example 129]
[1]
  Kill rate in % after 7^d: 100%
[3]
  Kill rate in % after 7^d: 100%

## COc1cc(C2C3=C(COC3=O)Nc3cc4c(cc32)OCO4)cc(O)c1OC (stereo not shown) [Example 130]
[4]; 500 g/ha
  Kill rate in % after 7^d: 100%

## COc1cc(C2C3=C(COC3=O)Nc3cc4c(cc32)OCO4)cc2c1OCO2 (stereo not shown) [Example 133]
[1]
  Kill rate in % after 7^d: 83%
[3]
  Kill rate in % after 7^d: 95%
[4]; 500 g/ha
  Kill rate in % after 7^d: 100%

## N#CCOc1cccc(C2C3=C(COC3=O)Nc3cc4c(cc32)OCO4)c1 (stereo not shown) [Example 136]
[1]
  Kill rate in % after 7^d: 100%
[4]; 500 g/ha
  Kill rate in % after 7^d: 83%

## COc1cc(C2C3=C(COC3=O)Nc3cc4c(cc32)OCO4)ccc1Cl (stereo not shown) [Example 139]
[1]
  Kill rate in % after 7^d: 100%
[4]; 500 g/ha
  Kill rate in % after 7^d: 83%

## O=C1OCC2=C1C(c1ccc(F)c(Cl)c1)c1cc3c(cc1N2)OCO3 (stereo not shown) [Example 140]
[1]
  Kill rate in % after 7^d: 100%

## COc1ccc(C2C3=C(COC3=O)Nc3cc4c(cc32)OCO4)cn1 (stereo not shown) [Example 142]
[1]
  Kill rate in % after 7^d: 100%
[4]; 500 g/ha
  Kill rate in % after 7^d: 100%

## O=C1OCC2=C1C(c1cc(Br)c3c(c1)OCO3)c1cc3c(cc1N2)OCO3 (stereo not shown) [Example 145]
[1]
  Kill rate in % after 7^d: 100%
[4]; 500 g/ha
  Kill rate in % after 7^d: 83%

## COc1cc(C2C3=C(COC3=O)Nc3cc4c(cc32)OCO4)ccc1F (stereo not shown) [Example 148]
[1]
  Kill rate in % after 7^d: 100%

## O=C1OCC2=C1C(c1cccc(OCc3ccc(Cl)cc3)c1)c1cc3c(cc1N2)OCO3 (stereo not shown) [Example 149]
[3]
  Kill rate in % after 7^d: 85%

## COc1cc(OC)c(C2C3=C(COC3=O)Nc3cc4c(cc32)OCO4)cn1 (stereo not shown) [Example 150]
[3]
  Kill rate in % after 7^d: 100%

## O=C1OCC2=C1C(c1cc(F)c(F)c(F)c1)c1cc3c(cc1N2)OCO3 (stereo not shown) [Example 153]
[1]
  Kill rate in % after 7^d: 100%

## COc1cc2c(c(C3C4=C(COC4=O)Nc4cc5c(cc43)OCO5)c1)OCO2 (stereo not shown) [Example 155]
[4]; 500 g/ha
  Kill rate in % after 7^d: 100%

## O=C1OCC2=C1C(c1cccc(OC(F)(F)C(F)F)c1)c1cc3c(cc1N2)OCO3 (stereo not shown) [Example 157]
[1]
  Kill rate in % after 7^d: 100%
[4]; 500 g/ha
  Kill rate in % after 7^d: 100%

## O=C1OCC2=C1C(c1cccc(OCCO)c1)c1cc3c(cc1N2)OCO3 (stereo not shown) [Example 158]
[1]
  Kill rate in % after 7^d: 100%

## COc1cc(OC)cc(C2C3=C(COC3=O)Nc3cc(OC)ccc32)c1 (stereo not shown) [Example 161]
[1]
  Kill rate in % after 7^d: 100%
[3]
  Kill rate in % after 7^d: 100%
[4]; 500 g/ha
  Kill rate in % after 7^d: 100%

## COc1cc(OC)cc(C2C3=C(COC3=O)Nc3ccc(OC)cc32)c1 (stereo not shown) [Example 162]
[3]
  Kill rate in % after 7^d: 100%
